From the supplement of paper PMC10307832

Legend:
Assay in all cases: relative viability (nuclei count vs DMSO), 5 days (fraction); higher = more cells survive
[1] = compound: CS(=O)(=O)c1ccc(-c2cnc(N)c(C(=O)Nc3ccccc3)n2)cc1 [VE-821] + CC(=O)Nc1cccc(-n2c(=O)n(C3CC3)c(=O)c3c(Nc4ccc(I)cc4F)n(C)c(=O)c(C)c32)c1 [Trametinib] (partner 0.02 µM)
Procedure, shortened: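 After 5 days of treatment, lung cancer cells in 1536-well plates were fixed and stained in a single step (final 0.05% Triton X-100, 1% formaldehyde, 1 ug/ml Hoechst) and their nuclei counted on 4× images. Treatment had been applied by pin tool the day after seeding as one drug alone or as a fixed anchor-drug dose with five library-drug doses (not always all listed) in √10 steps. Relative viability is the nuclei count of treated wells divided by that of vehicle wells, and values are medians of duplicate plates.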

[2] = compound: CS(=O)(=O)c1ccc(-c2cnc(N)c(C(=O)Nc3ccccc3)n2)cc1 [VE-821]
Procedure, shortened: (§1)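 Lung cancer cell lines in 1536-well plates were exposed by pinning to five library-drug doses (not always all listed) √10 apart, following an overnight hold at 37 °C. MetaXpress counted Hoechst-stained nuclei from 4× images taken after 5 days without medium change. Viability is the median ratio of treated-well to vehicle-well nuclei across plates. Plates required control CV below 25% and at least one doubling.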

[3] = compound: N#CC[C@H](C1CCCC1)n1cc(-c2ncnc3[nH]ccc23)cn1 [Ruxolitinib]
Procedure, shortened: as §1

[4] = compound: CS(=O)(=O)c1ccc(C(=O)Nc2ccc(Cl)c(-c3ccccn3)c2)c(Cl)c1 [Vismodegib]
Procedure, shortened: as §1

Row | Cell Line | relative viability ([1]; first compound 0.08 µM) | relative viability ([1]; first compound 0.253 µM) | relative viability ([1]; first compound 0.8 µM) | relative viability ([1]; first compound 2.53 µM) | relative viability ([1]; first compound 8 µM) | relative viability ([2]; 0.08 µM) | relative viability ([2]; 0.253 µM) | relative viability ([2]; 0.8 µM) | relative viability ([2]; 2.53 µM) | relative viability ([2]; 8 µM) | relative viability ([3]; 0.08 µM) | relative viability ([3]; 0.253 µM) | relative viability ([3]; 0.8 µM) | relative viability ([3]; 2.53 µM) | relative viability ([3]; 8 µM) | relative viability ([4]; 0.08 µM) | relative viability ([4]; 0.253 µM) | relative viability ([4]; 0.8 µM) | relative viability ([4]; 2.53 µM) | relative viability ([4]; 8 µM)
1 | NCI-H596 | 0.78 | 0.802 | 0.752 | 0.798 | 0.594 | 0.984 | 0.907 | 0.972 | 0.975 | 1 | 1.09 | 0.98 | 1.12 | 1.09 | 1.07 | 0.986 | 1.02 | 0.898 | 0.932 | 0.952
2 | NCI-H1734 | 0.718 | 0.732 | 0.651 | 0.723 | 0.587 | 1.07 | 0.989 | 0.964 | 1.03 | 0.656 | 0.962 | 0.914 | 1.15 | 0.879 | 0.942 | 0.966 | 0.954 | 0.951 | 0.993 | 0.961
3 | NCI-H1648 | 0.581 | – | 0.394 | 0.729 | 0.575 | 1.21 | 0.787 | 0.876 | 0.946 | 0.674 | 0.644 | 1.02 | 1.11 | 1.25 | 1.49 | 1 | 0.893 | 0.766 | 0.987 | 0.74
4 | NCI-H1651 | 0.876 | 0.799 | 0.733 | 0.808 | 0.821 | 0.976 | 0.954 | 0.922 | 0.977 | 0.969 | 0.948 | 0.978 | 0.971 | 0.939 | 0.976 | 0.945 | 0.976 | 0.947 | 0.956 | 1.02
5 | NCI-H2170 | 0.977 | 0.865 | 0.947 | 0.819 | 0.629 | 0.972 | 0.932 | 1.01 | 0.966 | 0.642 | 1.05 | 0.975 | 1 | 0.924 | 0.841 | 1.03 | 0.959 | 1.01 | 0.955 | 0.993
6 | NCI-H1975 | 0.359 | 0.37 | 0.199 | 0.352 | 0.227 | 1.01 | 0.845 | 0.811 | 0.795 | 0.739 | 0.893 | 0.92 | 0.973 | 0.83 | 0.649 | 0.901 | 0.925 | 1.03 | 1.02 | 1.01
7 | NCI-H1437 | 0.533 | 0.445 | 0.498 | 0.566 | 0.376 | 1.03 | 0.97 | 0.988 | 1.01 | 0.956 | 1.09 | 1.1 | 1.08 | 0.946 | 0.848 | 0.951 | 0.967 | 1.01 | 0.964 | 0.999
8 | HOP-62 | 0.402 | 0.413 | 0.351 | 0.403 | 0.429 | 1.11 | 0.997 | 1.02 | 1.18 | 1.02 | 0.976 | 1.04 | 1.09 | 1.05 | 0.972 | 0.998 | 0.954 | 0.94 | 0.96 | 1
9 | NCI-H2405 | 0.643 | 0.628 | 0.53 | 0.699 | 0.546 | 1.06 | 0.968 | 0.968 | 1.09 | 0.993 | 0.715 | 0.974 | 0.999 | 0.938 | 0.52 | 0.96 | 1.06 | 0.927 | 0.991 | 1.03
10 | SK-MES-1 | 0.609 | 0.516 | 0.462 | 0.471 | 0.455 | 1.03 | 0.955 | 0.905 | 0.933 | 0.809 | 1.04 | 0.967 | 1.02 | 0.846 | 0.725 | 0.964 | 0.997 | 1.01 | 0.986 | 1.04
11 | LC-2-ad | 0.985 | 0.886 | 0.879 | 0.912 | 0.956 | 1.07 | 0.978 | 1.05 | 1.12 | 0.995 | 0.779 | 0.971 | 1.01 | 0.842 | 0.665 | 1 | 0.952 | 0.939 | 0.929 | 0.907
12 | NCI-H1944 | 0.401 | 0.445 | 0.432 | 0.399 | 0.364 | 1.18 | 0.933 | 0.873 | 1.08 | 0.425 | 1.02 | 0.927 | 0.968 | 0.875 | 0.863 | 1.05 | 1.02 | 0.966 | 0.904 | 1.04
13 | NCI-H322M | 0.604 | 0.565 | 0.572 | 0.493 | 0.472 | 0.96 | 0.912 | 0.96 | 0.864 | 0.371 | 0.934 | 0.962 | 1.04 | 1.27 | 1.36 | 0.912 | 0.896 | 0.932 | 0.868 | 0.88
14 | HCC-366 | 0.38 | 0.381 | 0.293 | 0.13 | 0.0642 | 1.06 | 1.01 | 0.85 | 0.925 | 0.191 | 1.07 | 0.984 | 1.05 | 1.03 | 0.932 | 0.997 | 1.04 | 0.998 | 0.984 | 1
15 | HCC-78 | 0.816 | 0.646 | 0.689 | 0.855 | 0.917 | 1.1 | 0.863 | 0.887 | 1.04 | 0.756 | 0.831 | 0.717 | 0.869 | 0.853 | 0.743 | 0.82 | 0.914 | 0.875 | 0.902 | 0.865
16 | CAL-12T | 0.372 | 0.355 | 0.325 | 0.322 | 0.325 | 1.02 | 0.947 | 1.04 | 0.927 | 0.844 | 0.918 | 0.997 | 1.11 | 0.792 | 0.696 | 1.01 | 0.955 | 0.976 | 0.945 | 0.959
